In the assay the target is high affinity nicotinic receptors. Briefly: Inhibition of L-[3H]nicotine binding to mouse brain membrane preparations. Particulars: 10 nM L-[3H]nicotine, 2 hr at 4° C., mouse brain membranes, Ki calculated from IC50 by method of Cheng et al. Also noted: species or system Mice (DBA strain). How it is done: Mice (DBA strain) were maintained on a 12 hour light/dark cycle and were allowed free access to water and food supplied by Wayne Lab Blox, Madison, Wis. Animals used in the present studies were 60 to 90 days of age and weighed 20 to 25 g. Brain membrane preparations were obtained from pooled brain tissue of both males and females.
Mice were killed by cervical dislocation. Brains were removed and placed on an ice-cold platform. […] Protein was determined by the method of Lowry, et al., J. Biol. Chem., Vol. 193, pp. 265-275 (1951), using bovine serum albumin as the standard.
The binding of L-[^3 H]nicotine was measured using a modification of the method of Romano, et al., Science, Vol. 210, pp. 647-650 (1980) as described previously by Marks, et al., Mol. pharmacol., Vol. 30, pp. 427-436 (1986). The binding of L-[^3 H]nicotine was measured using a 2 hr. incubation at 4° C. […] Nonspecific binding was determined by inclusion of 10 μM nonradioactive nicotine in the incubations. The inhibition of L-[^3 H]nicotine binding by test compounds was determined by including one of eight different concentrations of the test compound in the incubation. […] Inhibition constants (Ki values) were calculated from the IC50 values using the method of Cheng, et al., Biochem. Pharmacol., Vol. 22, pp. 3099-3108 (1973). […]

As for `CN1CCCC1c1ccccc1` (racemic) [1-methyl-2-phenylpyrrolidine], the inhibitory constant (Ki) is 3.5 µM.

Values taken from patent US5248690A, “Method for treatment of neurodegenerative diseases” (R. J. Reynolds Tobacco Company, priority 1992, dated 1993).
